The first assay addresses Recombinant human HSD17B13 enzyme (Homo sapiens (Human), UniProt Q7Z5P4). Put plainly: HSD17b13 NAD(P)H-Glo Biochemical Assay. The settings on record: 50 uM estradiol, 1 mM NAD+; read-out: HSD17β13 IC50. An outline of the steps: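 Luminescent NAD(P)H-Glo detection (1 h, RT) quantified cofactor reduction after a 3 h, 37° C reaction of human HSD17B13 with estradiol (50 uM final) and NAD+ (1 mM final). Compounds were first pre-incubated 20 min at RT with enzyme in Tris pH 7.4 buffer containing Tween-20 and BSA.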
Chain of Recombinant human HSD17B13 enzyme (Q7Z5P4 20-300): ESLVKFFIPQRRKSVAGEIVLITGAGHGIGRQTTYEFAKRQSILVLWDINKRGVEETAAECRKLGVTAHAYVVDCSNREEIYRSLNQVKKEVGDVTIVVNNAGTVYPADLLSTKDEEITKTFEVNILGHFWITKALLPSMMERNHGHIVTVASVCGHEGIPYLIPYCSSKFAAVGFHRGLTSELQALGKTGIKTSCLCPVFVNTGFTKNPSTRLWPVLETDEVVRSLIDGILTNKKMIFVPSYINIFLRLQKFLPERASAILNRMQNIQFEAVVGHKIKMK
A word on the IC50: it is the concentration that gives 50% inhibition. For `O=C(O)C1CCN(c2ccc3c(cnn3-c3ccc(F)c(O)c3)c2)CC1` [Compound 20.02, 1-(1-(4-Fluoro-3-hydroxy-phenyl)-1H-indazol-5-yl)-piperidine-4-carboxylic acid], the half-inhibitory concentration (IC50) lay in the range of 1000 to 30000 nM.

`CS(=O)(=O)N1CCN(c2ccc3c(cnn3-c3cc(O)c(F)c(F)c3)c2)CC1` [Compound 21, 2,3-Difluoro-5-(5-(4-(methylsulfonyl)piperazin-1-yl)-1H-indazol-1-yl)phenol]: the IC50 fell in the range of 100 to 1000 nM. Same read-out and setting: then `Cc1nn(-c2cc(O)c(F)c(F)c2)c2ccc(N3CCN(S(C)(=O)=O)CC3)cc12` [Compound 21.01, 2,3-Difluoro-5-(3-methyl-5-(4-(methylsulfonyl)piperazin-1-yl)-1H-indazol-1-yl)phenol], with 100 to 1000 nM; and `COC1CCN(c2ccc3c(cnn3-c3ccc(F)c(O)c3)c2)CC1` [Compound 21.02, 2-Fluoro-5-(5-(4-methoxy-piperidin-1-yl)-1H-indazol-1-yl)phenol], with 1000 to 30000 nM. On the same count and under the same terms, then `CC(C)c1nn(-c2cc(O)c(F)c(F)c2)c2ccc(N3CCN(S(C)(=O)=O)CC3)cc12` [Compound 21.03, 2,3-Difluoro-5-(3-isopropyl-5-(4-(methylsulfonyl)piperazin-1-yl)-1H-indazol-1-yl)phenol], with 1000 to 30000 nM; and `CC(C)S(=O)(=O)N1CCN(c2ccc3c(cnn3-c3cc(O)c(F)c(F)c3)c2)CC1` [Compound 21.04, 2,3-Difluoro-5-(5-(4-(isoprop-ylsulfonyl)piperazin-1-yl)-1H-indazol-1-yl)phenol], with 100 to 1000 nM. The same measure, in the same setting: then `CS(=O)(=O)NC1CCN(c2ccc3c(cnn3-c3cc(O)c(F)c(F)c3)c2)CC1` [Compound 21.05, N-(1-(1-(3,4-Difluoro-5-hydroxyphenyl)-1H-indazol-5-yl)piperidin-4-yl)methane-sulfonamide], with 1000 to 30000 nM; and `CS(=O)(=O)C1CCN(c2ccc3c(cnn3-c3cc(O)c(F)c(F)c3)c2)CC1` [Compound 21.06, 2,3-Difluoro-5-(5-(4-(methyl-sulfonyl)piperidin-1-yl)-1H-indazol-1-yl)phenol], with 1000 to 30000 nM. On to `CS(=O)(=O)NC1CN(c2ccc3c(cnn3-c3cc(O)c(F)c(F)c3)c2)C1` [Compound 21.07, N-(1-(1-(3,4-Difluoro-5-hydroxyphenyl)-1H-indazol-5-yl)azetidine-3-yl)methane-sulfonamide], for which the IC50 was 1000 to 30000 nM. Consider `O=S1(=O)CCN(c2ccc3c(cnn3-c3cc(O)c(F)c(F)c3)c2)CC1` [Compound 21.08, 4-(1-(3,4-Difluoro-5-hydroxy-phenyl)-1H-indazol-5-yl)-thiomorpholine 1,1-dioxide], for which the IC50 fell in the range of 1000 to 30000 nM. Same read-out and setting: then `O=S(=O)(c1ccccc1)N1CCN(c2ccc3c(cnn3-c3cc(O)c(F)c(F)c3)c2)CC1` [Compound 21.09, 2,3-Difluoro-5-(5-(4-(phenyl-sulfonyl)piperazin-1-yl)-1H-indazol-1-yl)phenol], with 100 to 1000 nM; and `O=S(=O)(Cc1ccccc1)N1CCN(c2ccc3c(cnn3-c3cc(O)c(F)c(F)c3)c2)CC1` [Compound 21.10, 5-(5-(4-(Benzylsulfonyl)-piperazin-1-yl)-1H-indazol-1-yl)-2,3-difluorophenol], with 100 to 1000 nM; and `Cc1cc2c(cnn2-c2cc(O)c(F)c(F)c2)cc1N1CCN(S(C)(=O)=O)CC1` [Compound 21.11, 2,3-Difluoro-5-(6-methyl-5-(4-(methylsulfonyl)piperazin-1-yl)-1H-indazol-1-yl)phenol], with 1000 to 30000 nM. The same measure, in the same setting: then `CS(=O)(=O)N1CCN(c2ccc3c(c2)c(C2CC2)nn3-c2cc(O)c(F)c(F)c2)CC1` [Compound 21.12, 5-(3-Cyclopropyl-5-(4-(meth-ylsulfonyl)piperazin-1-yl)-1H-indazol-1-yl)-2,3-difluoro-phenol], with 1000 to 30000 nM; and `CS(=O)(=O)N1CCN(c2cc3cnn(-c4cc(O)c(F)c(F)c4)c3cc2Cl)CC1` [Compound 21.13, 5-(6-Chloro-5-(4-(methyl-sulfonyl)piperazin-1-yl)-1H-indazol-1-yl)-2,3-difluoro-phenol], with 100 to 1000 nM. On the same count and under the same terms, with `Cc1c(N2CCN(S(C)(=O)=O)CC2)ccc2c1cnn2-c1cc(O)c(F)c(F)c1` [Compound 21.14, 2,3-Difluoro-5-(4-methyl-5-(4-(methylsulfonyl)piperazin-1-yl)-1H-indazol-1-yl)phenol] the figure was 1000 to 30000 nM; with `CS(=O)(=O)N1CCN(c2ccc3c(cnn3-c3cc(O)c(F)c(F)c3)c2Cl)CC1` [Compound 21.15, 5-(4-Chloro-5-(4-(methyl-sulfonyl)piperazin-1-yl)-1H-indazol-1-yl)-2,3-difluoro-phenol], 1000 to 30000 nM. In the case of `CS(=O)(=O)N1CCN(c2cc(Cl)c3c(cnn3-c3cc(O)c(F)c(F)c3)c2)CC1` [Compound 21.16, 5-(7-Chloro-5-(4-(methyl-sulfonyl)piperazin-1-yl)-1H-indazol-1-yl)-2,3-difluoro-phenol], the IC50 is 1000 to 30000 nM. On the same count and under the same terms, then `CS(=O)(=O)N1CCN(c2ccc3c(cnn3-c3cc(O)c(F)c(F)c3)n2)CC1` [Compound 21.18, 2,3-Difluoro-5-(5-(4-(methyl-sulfonyl)piperazin-1-yl)-1H-pyrazolo[4,3-b]pyridine-1-yl)-phenol], with 1000 to 30000 nM; and `CS(=O)(=O)N1CCN(c2cc3cnn(-c4cc(O)c(F)c(F)c4)c3cc2C(F)(F)F)CC1` [Compound 21.19, 2,3-Difluoro-5-(5-(4-(methyl-sulfonyl)piperazin-1-yl)-6-(trifluoromethyl)-1H-indazol-1-yl)phenol], with 1000 to 30000 nM; and `COC1CCN(c2ccc3c(cnn3-c3cc(O)c(F)c(F)c3)c2)CC1` [Compound 21.20, 2,3-Difluoro-5-(5-(4-methoxy-piperidin-1-yl)-1H-indazol-1-yl)phenol], with 100 to 1000 nM. On the same count and under the same terms, then `COC1CCN(c2cc3cnn(-c4cc(O)c(F)c(F)c4)c3cc2Cl)CC1` [Compound 21.21, 5-(6-Chloro-5-(4-methoxy-piperidin-1-yl)-1H-indazol-1-yl)-2,3-difluorophenol], with 100 to 1000 nM; and `COC1CCN(c2ccc3c(cnn3-c3cc(O)c(F)c(F)c3)c2)C1` (stereo not drawn) [Compound 21.22, 2,3-Difluoro-5-(5-(3-methoxy-pyrrolidin-1-yl)-1H-indazol-1-yl)phenol], with 1000 to 30000 nM; and `CS(=O)(=O)N1CCN(c2cc3cnn(-c4cc(O)c(F)c(F)c4)c3cc2C#N)CC1` [Compound 21.23, 1-(3,4-Difluoro-5-hydroxy-phenyl)-5-(4-(methylsulfonyl)-piperazin-1-yl)-1H-indazole-6-carbonitrile], with 100 to 1000 nM. On the same count and under the same terms, then `CS(=O)(=O)N1CCN(c2cc3cnn(-c4cc(O)c(F)c(F)c4)c3cc2F)CC1` [Compound 21.24, 2,3-Difluoro-5-(6-fluoro-5-(4-(methylsulfonyl)piperazin-1-yl)-1H-indazol-1-yl)phenol], with 100 to 1000 nM. Turning to `COC1CN(c2ccc3c(cnn3-c3cc(O)c(F)c(F)c3)c2)C1` [Compound 21.25, 2,3-Difluoro-5-(5-(3-methoxy-azetidin-1-yl)-1H-indazol-1-yl)phenol], the half-maximal inhibitory concentration (IC50) fell in the range of 1000 to 30000 nM. Same read-out and setting: then `CS(=O)(=O)N1CCCN(c2ccc3c(cnn3-c3cc(O)c(F)c(F)c3)c2)CC1` [Compound 21.26, 2,3-Difluoro-5-(5-(4-(methyl-sulfonyl)-1,4-diazepan-1-yl)-1H-indazol-1-yl)phenol], with 100 to 1000 nM; and `CS(=O)(=O)N1CC2(CN(c3ccc4c(cnn4-c4cc(O)c(F)c(F)c4)c3)C2)C1` [Compound 21.27, 2,3-Difluoro-5-(5-(6-(methyl-sulfonyl)-2,6-diazaspiro[3.3]-heptan-2-yl)-1H-indazol-1-yl)phenol], with 100 to 1000 nM; and `CC(C)S(=O)(=O)N1CCN(c2cc3cnn(-c4cc(O)c(F)c(F)c4)c3cc2Cl)CC1` [Compound 21.28, 5-(6-Chloro-5-(4-(isopropyl-sulfonyl)piperazin-1-yl)-1H-indazol-1-yl)-2,3-difluoro-phenol], with 100 to 1000 nM. Still for that read-out and setting: then `CC1(C)CN(c2ccc3c(cnn3-c3cc(O)c(F)c(F)c3)c2)CCN1S(C)(=O)=O` [Compound 21.29, 5-(5-(3,3-Dimethyl-4-(methyl-sulfonyl)piperazin-1-yl)-1H-indazol-1-yl)-2,3-difluoro-phenol], with 100 to 1000 nM. The same measure, in the same setting: then `CC1(C)CN(S(C)(=O)=O)CCN1c1ccc2c(cnn2-c2cc(O)c(F)c(F)c2)c1` [Compound 21.30, 5-(5-(2,2-Dimethyl-4-(methyl-sulfonyl)piperazin-1-yl)-1H-indazol-1-yl)-2,3-difluoro-phenol], with 1000 to 30000 nM; and `CS(=O)(=O)C1CN(c2ccc3c(cnn3-c3cc(O)c(F)c(F)c3)c2)C1` [Compound 21.31, 2,3-Difluoro-5-(5-(3-(methyl-sulfonyl)azetidin-1-yl)-1H-indazol-1-yl)phenol], with 100 to 1000 nM.

Staying with this assay, now noted: read-out: HSD17β13 inhibition at 10 uM.
As usually defined, the inhibition is how much of the control response was suppressed. As for `CN(C)C(=O)C1CCN(c2ccc3c(cnn3-c3ccc(F)c(O)c3)c2)CC1` [Compound 20.04, 1-(1-(4-Fluoro-3-hydroxy-phenyl)-1H-indazol-5-yl)-N,N-dimethylpiperidine-4-carboxamide], the inhibition at 10 µM is below 20%.

Staying with this assay, now noted: read-out: HSD17β13 inhibition at 30 uM.
As to `Cc1cc(N2CCN(S(C)(=O)=O)CC2)cc2cnn(-c3cc(O)c(F)c(F)c3)c12` [Compound 21.17, 2,3-Difluoro-5-(7-methyl-5-(4-(methylsulfonyl)piperazin-1-yl)-1H-indazol-1-yl)phenol], the inhibition at 30 µM was determined as 47%.

The assay is the same for the next values; noted with them: read-out: HSD17β13 inhibition at 100 uM.
Consider `CNC(=O)C1CCN(c2ccc3c(cnn3-c3ccc(F)c(O)c3)c2)CC1` [Compound 20.03, 1-(1-(4-Fluoro-3-hydroxy-phenyl)-1H-indazol-5-yl)-N-methylpiperidine-4-carboxamide], for which the inhibition at 100 µM amounted to 40%. On the same count and under the same terms, then `CC(=O)N1CCN(c2ccc3c(cnn3-c3ccc(F)c(O)c3)c2)CC1` [Compound 20.05, 1-(4-(1-(4-Fluoro-3-hydroxyphenyl)-1H-indazol-5-yl)piperazin-1-yl)ethan-1-one], with below 20%.
